In patent publication US20160160179A1, “METHOD FOR OBTAINING A POPULATION OF ISOLATED BRITE ADIPOCYTES” (INSERM (INSTITUT NATIONAL DE LA SANTÉ ET DE LA RECHERCHE …, priority 2013, published 2016):
Where a name gives a salt, the structure may show the parent alone.

Key:
[1] = test system: whole native progenitor cells (CD45−/CD34+/CD31−); test: In vitro adipogenesis of whole native progenitor cells; format: cell-based, human; conditions: 0.25 mM IBMX for 3 days, ITTC medium until day 10
Source text: (§1) An immuno-selection/depletion approach was developed to obtain the native progenitor cell subsets starting from 50.10^6 to 150.10^6 SVF cells. The total progenitor cell population (CD34+/CD31− cells) was obtained in two steps: immune cells were first removed using CD45 positive cell-depletion step (CD45-depletion kit from Stemcell Technologies, Grenoble, France) followed by endothelial cell depletion step using an anti-CD31-depletion kit (R&D Systems, Lille, France) according to manufacturer's protocol. To further isolate the distinct progenitor cell subsets, the Mscal-positive cells were selected from the CD45−/CD31− cells, the −/CD271 positive cells were selected from the CD45−/CD31−/MSCA1− cells and the CD45−/CD31−/MSCA1−/CD271− (−/−) cells using CD34 immuno-magnetic selection kits (MSCA1+, CD271+ and CD34+ immuno-magnetic selection kits were from Miltenyi Biotec, Paris, France). The purity of each fraction was assessed after selection by flow cytometry analyses.

[2] = test system: MSCA1+ cells (CD45−/CD34+/CD31−/CD271+/MSCA1+); test: In vitro adipogenesis of the immunoselected MSCA1+ cell subset; format: cell-based, human; conditions: IBMX stimulation
Source text: as §1
(§2) Total RNAs were extracted using the RNeasy kit (Qiagen). […] RNAs were reverse-transcribed using Superscript® II kit (Invitrogen). TaqMan® Primers are listed in supplemental data Table 1.
Cells or small pieces of whole AT were fixed (paraformaldehyde 4%, room temperature for 15 min for cultured cells and up to 1 h for whole AT). […]

[3] = test system: native human AT progenitor cells
Description: 120 000 cells were plated per cm^2 in growth medium (ECGM MV) supplemented with […] penicillin-streptomycin. 48 h after seeding, medium was changed into basal defined medium (ECBM) supplemented with […] penicillin-streptomycin, 66 nmol/L Insulin, 1 nmol/L Triiodothyronine, 0.1 μg/ml human Transferrin, 100 nmol/L Cortisol (ITTC, Control) supplemented or not with 3 μmol/L Rosiglitazone or 0.25 mM isobuthylmethaxantine (IBMX). After 3 days, medium was changed and cells were maintained in ITTC medium until day 10. Cells were fixed (paraformaldehyde 4%, 15 min, RT), and stained with Bodipy 493/503 (10 μg/ml, 15 min, Invitrogen) and Hoechst 33342 (5 μg/ml, 15 min, Invitrogen). Stainings were observed by inversed fluorescent microscope (Nikon Eclipse TE300) and 5 pictures were randomly taken under 20X objective (numeric camera and acquisition software NIS-Elements 2.5 BR, Nikon®). Differentiation area (Bodipy stained area, μm^2) was measured with ImageJ software and normalized by nuclei cell number in order to obtain the differentiation area (μm^2) per cell. Total RNAs were extracted using the RNeasy kit (Qiagen). The RNA concentration was measured by fluorimetric assay (Ribogreen, Invitrogen). RNAs were reverse-transcribed using Superscript® II kit (Invitrogen). TaqMan® Primers are listed in supplemental data Table 1. The amplification reaction was done in duplicate on 15 ng of the cDNA samples in a final volume of 20 μL in 96-well reaction plates (Applied Biosystems) in a GeneAmp 7500 detection system (Applied Biosystems). All reactions were performed under the same conditions: 50° C. for 2 minutes, 95° C. for 10 minutes, 40 cycles of 95° C. for 15 seconds, and 60° C. for 1 minute. Results were analyzed with the GeneAmp 7500 software and all values were normalised to 18S rRNA levels. Progenitor cells were cultured under adipogenic conditions with or without 50 μM or 500 μM of tetramisole hydrochloride, an alkaline phosphatase inhibitor. After 3 to 10 days, Bodipy staining was performed or RNAs extracted. Progenitor cells were seeded at the density of 90000/cm2 cells in 12 well-plates. After 24 hours, cells were transfected with 500 ng/mL of MISSION® esiRNA against tissue non-specific alkaline phosphatase (MSCA1) or GFP as negative control with 1 μL of lipofectamine® 2000 (invitrogen) in 1 mL of basal medium. After 12 hours, medium was removed and cells were rinsed once with PBS and cultured under adipogenic conditions for 3 to 10 days and RNAs were extracted.

[4] = test system: Progenitor cells; test: BMP7 adipogenic culture protocol; format: cell-based, human; conditions: 50 ng/mL for 2 days, then 9 days in ITTC
Description: Progenitor cells were treated during 2 days with recombinant human BMP7 (50 ng/mL) then 9 days in adipogenic medium (ITTC).
MSCA1 gene expression and activity were measured. UCP1 gene expression was measured by RT-PCR.
as §2

`CC(C)Cn1c(=O)n(C)c(=O)c2[nH]cnc21` [IBMX, 3-isobutyl-1-methylxanthine] was tested, and the differentiation [1] was “only slightly and insignificantly increased”, the “differentiation (lipid laden cells)” value ([2]; 0.25 mM) was “marked appearance of lipid laden cells” and the UCP1-positive cell clusters ([2]; immunofluorescence) was “only found in cells from the MSCA1+ subset”.

For `c1ccc(C2CN3CCSC3=N2)cc1` (stereo not shown) [tetramisole, tetramisole hydrochloride], the “total number of nucleated cells” value ([3]; 50 μM or 500 μM, adipogenic culture conditions) was “without altering”, the adipocyte differentiation ([3]; 50 μM or 500 μM, adipogenic culture conditions, Bodipy staining) was “concentration-dependent decrease” and the “expression of adipogenic and adipocyte-specific genes after the commitment period” value ([3]; day 3) was “No statistically significant effect”. For the same molecule, the “expression of adipogenic transcription factors PPARγ2, CHREBP, C/EBPα and adipocyte-specific genes LPL, GPDH, PLIN1” value ([3]; day 10) was “decreased”.

B1: BMP7: recombinant human BMP7, a Bone Morphogenetic Protein (protein, UniProt P18075 293-431, looked up)
Bone morphogenetic protein 7: STGSKQRSQNRSKTPKNQEALRMANVAENSSSDQRQACKKHELYVSFRDLGWQDWIIAPEGYAAYYCEGECAFPLNSYMNATNHAIVQTLVHFINPETVPKPCCAPTQLNAISVLYFDDSSNVILKKYRNMVVRACGCH
With B1 the “activity of the MSCA1 gene” value [4] was “significantly increased”, the “expression of the MSCA1 gene” value [4] was “significantly increased” and the UCP1 gene expression ([4]; RT-PCR) was “significant increase”.
